Test results as given in patent publication US7947741B2, “Use and administration of bacterial efflux pump inhibitors” (Mpex Pharmaceuticals, Inc., priority 2004, dated 2011).
In brackets after ≈: the same amount, converted by molar mass.

Tests used:
Type in all cases: cell-based, Pseudomonas aeruginosa
[1] = test system: P. aeruginosa PAM1723 (MexAB-OprM overexpressed); conditions: for MIC, No Pentamidine / MIC, Pentamidine (40 μg/ml): PAM1723 (MexAB-OprM overexpressed); for MIC, Pentamidine (40 μg/ml): in the presence of pentamidine 40 μg/ml; for decrease of the MIC by pentamidine: PAM1723, pentamidine 40 μg/ml
[2] = test system: P. aeruginosa PAM1154 (MexAB-OprM deleted)
PAM1723 cells = test: EtBr uptake (proton gradient disruption); conditions: CCCP 50 μg/ml for 15 minutes, pentamidine 80 μg/ml
Description: A proton gradient is necessary for efflux pump activity. Accordingly, compounds that are capable of proton gradient disruption will appear as efflux inhibitors in accumulation assays. This possibility was tested for pentamidine. EtBr is a substrate of the MexAB-OprM efflux pump from P. aeruginosa as evident from the differential rates of its uptake in PAM 1723 and PAM 1626, MexAB-OprM overexpressing or lacking strains, respectively. CCCP is a well-known protonophore, which rapidly dissipates the proton gradient.

[3] = test system: P. aeruginosa PAM1020 (pump status none; target mutation none); test: microbe, parasite or virus in culture; conditions: Pseudomonas aeruginosa, read-out: Ciprofloxacin MIC w/o pentamidine
Source text: (§1) In addition to increased efflux, resistance to fluoroquinolones may be due to target mutations (gyrase and topoisimerase IV) or due to combination of these two resistance mechanisms in a single bacterial cell.

[4] = test system: P. aeruginosa PAM1032 (MexAB-OprM); test: microbe, parasite or virus in culture; conditions: Pseudomonas aeruginosa, read-out: Ciprofloxacin MIC w/o pentamidine
Source text: as §1

[5] = test system: P. aeruginosa PAM1033 (MexCD-OprJ); test: microbe, parasite or virus in culture; conditions: Pseudomonas aeruginosa, read-out: Ciprofloxacin MIC w/o pentamidine
Source text: as §1

[6] = test system: P. aeruginosa PAM1034 (MexEF-OprN); test: microbe, parasite or virus in culture; conditions: Pseudomonas aeruginosa, read-out: Ciprofloxacin MIC w/o pentamidine
Source text: as §1

[7] = test system: P. aeruginosa PAM1482 (MexCD-OprJ; gyrA (Asp87Tyr)); test: microbe, parasite or virus in culture; conditions: Pseudomonas aeruginosa, read-out: Ciprofloxacin MIC w/o pentamidine
Source text: as §1

[8] = test system: P. aeruginosa PAM1491 (MexEF-OprN; gyrA (Asp87Tyr)); test: microbe, parasite or virus in culture; conditions: Pseudomonas aeruginosa, read-out: Ciprofloxacin MIC w/o pentamidine
Source text: as §1

[9] = test system: P. aeruginosa PAM1548 (pump status none; gyrA (Thr83Ile)); test: microbe, parasite or virus in culture; conditions: Pseudomonas aeruginosa, read-out: Ciprofloxacin MIC w/o pentamidine
Source text: as §1

[10] = test system: P. aeruginosa PAM1569 (MexCD-OprJ; gyrA (Thr83Ile)); test: microbe, parasite or virus in culture; conditions: Pseudomonas aeruginosa, read-out: Ciprofloxacin MIC w/o pentamidine
Source text: as §1

[11] = test system: P. aeruginosa PAM1570 (MexEF-OprN; gyrA (Thr83Ile)); test: microbe, parasite or virus in culture; conditions: Pseudomonas aeruginosa, read-out: Ciprofloxacin MIC w/o pentamidine
Source text: as §1

[12] = test system: P. aeruginosa PAM1438 (MexAB-OprM, MexCD-OprJ); test: microbe, parasite or virus in culture; conditions: Pseudomonas aeruginosa, read-out: Ciprofloxacin MIC w/o pentamidine
Description: (§2) A set of strains that simultaneously over-expressed pairs or triplicates of pumps, e.g. PAM2302 and PAM2303 was tested. Simultaneous over-expression of efflux pumps has been recently detected in clinical strains.

[13] = test system: P. aeruginosa PAM2281 (MexAB-OprM, MexEF-OprN); test: microbe, parasite or virus in culture; conditions: Pseudomonas aeruginosa, read-out: Ciprofloxacin MIC w/o pentamidine
Description: as §2

[14] = test system: P. aeruginosa PAM2282 (MexAB-OprM, MexEF-OprN); test: microbe, parasite or virus in culture; conditions: Pseudomonas aeruginosa, read-out: Ciprofloxacin MIC w/o pentamidine
Description: as §2

[15] = test system: P. aeruginosa PAM2302 (MexAB-OprM, MexCD-OprJ, MexEF-OprN); test: microbe, parasite or virus in culture; conditions: Pseudomonas aeruginosa, read-out: Ciprofloxacin MIC w/o pentamidine
Description: as §2

[16] = test system: P. aeruginosa PAM2466 (MexAB-OprM, MexXY-OprM); test: microbe, parasite or virus in culture; conditions: Pseudomonas aeruginosa, read-out: Ciprofloxacin MIC w/o pentamidine
Description: as §2

| Structure (SMILES) | MIC, No Pentamidine [1] [mg/L] | MIC, Pentamidine (40 μg/ml) [1] | decrease of the MIC by pentamidine [1] [fold] | MIC, No Pentamidine [2] [mg/L] | other results |
| --- | --- | --- | --- | --- | --- |
| CC[C@H]1OC(=O)[C@H](C)[C@@H](O[C@H]2C[C@@](C)(OC)[C@@H](O)[C@H](C)O2)[C@H](C)[C@@H](O[C@@H]2O[C@H](C)C[C@H](N(C)C)[C@H]2O)[C@](C)(O)C[C@@H](C)CN(C)[C@H](C)[C@@H](O)[C@]1(C)O [Azithro, azithromycin] | 64 (≈ 85.4 µM) | 1 | 64 | 0.5 (≈ 0.668 µM) | – |
| N#CC(C#N)=NNc1cccc(Cl)c1 [CCCP] | – | – | – | – | EtBr uptake (PAM1723 cells): dramatic increase of EtBr uptake |
| O=C(O)c1cn(C2CC2)c2cc(N3CCNCC3)c(F)cc2c1=O [Ciprofloxacin, ciprofloxacin] | 0.25 (≈ 0.754 µM) | 0.03 | 8 | 0.008 (≈ 0.0241 µM) | MIC [3]: 0.06 mg/L; MIC [4]: 0.5 mg/L; MIC [5]: 1 mg/L; MIC [6]: 1 mg/L; MIC [7]: 8 mg/L; MIC [8]: 8 mg/L; MIC [9]: 2 mg/L; MIC [10]: 16 mg/L; MIC [11]: 16 mg/L; MIC [12]: 16 mg/L (≈ 48.3 µM); MIC [13]: 8 mg/L (≈ 24.1 µM); MIC [14]: 2 mg/L (≈ 6.04 µM); MIC [15]: 2 mg/L (≈ 6.04 µM); MIC [16]: 0.5 mg/L (≈ 1.51 µM) |
| O=C(N[C@H](CO)[C@H](O)c1ccc([N+](=O)[O-])cc1)C(Cl)Cl [Cm, chloramphenicol] | 128 (≈ 396 µM) | 8 | 16 | 1 (≈ 3.09 µM) | – |
| CC[C@H]1OC(=O)[C@H](C)[C@@H](O[C@H]2C[C@@](C)(OC)[C@@H](O)[C@H](C)O2)[C@H](C)[C@@H](O[C@@H]2O[C@H](C)C[C@H](N(C)C)[C@H]2O)[C@](C)(O)C[C@@H](C)C(=O)[C@H](C)[C@@H](O)[C@]1(C)O [Erm, erythromycin] | – | 64 | 4 | 8 (≈ 10.9 µM) | – |
